Laboratory results reported in ChEMBL document CHEMBL1201862, “PubChem BioAssay data set” (2004).
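Step 1: Grow cells in 96-well plates. Step 2: Expose to compound for 48 hours at 5 concentrations. Step 3: Interpolate endpoints linearly; if unreached, use highest concentration. The concentration for 50% growth inhibition is given as GI50.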 Activity calls are given as the source filed them. Rule as the data show it: active = GI50 up to about 1.1 µM and inactive = higher.

Columns and labels:
Assay in all cases: growth of human tumour cells (NCI), 48 h
SK-MEL-2 = tested on: SK-MEL-2
BT-549 = tested on: BT-549
COLO 205 = tested on: COLO 205
KM12 = tested on: KM12
SW-620 = tested on: SW-620
MDA-N = tested on: MDA-N
SNB-19 = tested on: SNB-19
OVCAR-3 = tested on: OVCAR-3
SF-295 = tested on: SF-295
MCF7 = tested on: MCF7
HL-60 = tested on: HL-60
786-0 = tested on: 786-0
MOLT-4 = tested on: MOLT-4
OVCAR-8 = tested on: OVCAR-8
EKVX = tested on: EKVX
CAKI-1 = tested on: CAKI-1
OVCAR-5 = tested on: OVCAR-5
A498 = tested on: A498
M14 = tested on: M14

SMILES | GI50 (SK-MEL-2) | GI50 (BT-549) | GI50 (COLO 205) | GI50 (KM12) | GI50 (SW-620) | GI50 (MDA-N) | GI50 (SNB-19) | GI50 (OVCAR-3) | GI50 (SF-295) | GI50 (MCF7) | GI50 (HL-60) | GI50 (786-0) | GI50 (MOLT-4) | GI50 (OVCAR-8) | GI50 (EKVX) | GI50 (CAKI-1) | GI50 (OVCAR-5) | GI50 (A498) | GI50 (M14)
NS(=O)(=O)c1cc(Br)c(/N=N\c2ccc(O)c3ncccc23)c(Br)c1 | 28 µM (inactive) | 16.4 µM (inactive) | > 100 µM (inactive) | 37.8 µM (inactive) | 34.8 µM (inactive) | 14.6 µM (inactive) | 19.5 µM (inactive) | 54.6 µM (inactive) | 42.6 µM (inactive) | 11.5 µM (inactive) | 6.04 µM (inactive) | 23.6 µM (inactive) | 3.99 µM (inactive) | 35.2 µM (inactive) | 32.3 µM (inactive) | 37.9 µM (inactive) | 71.6 µM (inactive) | 18.6 µM (inactive) | 13.1 µM (inactive)
COc1ccc2c(c1)CC[C@@H]1[C@@H]2CC[C@]2(C)/C(=N/OCCN3CCCC3)CC[C@@H]12 | 1.82 µM (inactive) | 8.07 µM (inactive) | 1.67 µM (inactive) | 2.42 µM (inactive) | 1.95 µM (inactive) | 1.98 µM (inactive) | 11.1 µM (inactive) | 5.82 µM (inactive) | 2.35 µM (inactive) | 3.03 µM (inactive) | 1.21 µM (inactive) | 1.75 µM (inactive) | 1.93 µM (inactive) | 3.81 µM (inactive) | 4.57 µM (inactive) | 1.75 µM (inactive) | 2.79 µM (inactive) | 3.8 µM (inactive) | 1.27 µM (inactive)
Oc1c(O)c(Cc2ccccc2)c(Cc2ccccc2)c(Cc2ccccc2)c1Cc1ccccc1 | > 10 µM (inactive) | > 10 µM (inactive) | > 10 µM (inactive) | > 10 µM (inactive) | > 10 µM (inactive) | > 10 µM (inactive) | > 10 µM (inactive) | > 10 µM (inactive) | > 10 µM (inactive) | > 10 µM (inactive) | > 10 µM (inactive) | > 10 µM (inactive) | > 10 µM (inactive) | > 10 µM (inactive) | > 10 µM (inactive) | > 10 µM (inactive) | > 10 µM (inactive) | > 10 µM (inactive) | > 10 µM (inactive)
CSc1ccc(-c2cc(-c3nc4ccccc4[nH]3)no2)cc1 | 20.4 µM (inactive) | 19.6 µM (inactive) | 23.9 µM (inactive) | 9.91 µM (inactive) | 37 µM (inactive) | 26.9 µM (inactive) | 40.3 µM (inactive) | 22.1 µM (inactive) | 28.7 µM (inactive) | 9.02 µM (inactive) | 21.6 µM (inactive) | 55.1 µM (inactive) | 8.34 µM (inactive) | 35 µM (inactive) | 24.7 µM (inactive) | 23.6 µM (inactive) | > 100 µM (inactive) | 30.8 µM (inactive) | 20.4 µM (inactive)
Cc1ccc(NC(=O)CC(=O)n2nc(C)c(/N=N/c3cccc(C)c3)c2C)cc1 | > 100 µM (inactive) | > 100 µM (inactive) | > 100 µM (inactive) | > 100 µM (inactive) | > 100 µM (inactive) | > 100 µM (inactive) | 71.1 µM (inactive) | > 100 µM (inactive) | > 100 µM (inactive) | > 100 µM (inactive) | 38 µM (inactive) | > 100 µM (inactive) | > 100 µM (inactive) | > 100 µM (inactive) | 31 µM (inactive) | > 100 µM (inactive) | > 100 µM (inactive) | > 100 µM (inactive) | > 100 µM (inactive)
N#Cc1ccc(Oc2nc3ccc(C(F)(F)F)cc3nc2-c2ccccc2)cc1 | 19.5 µM (inactive) | 34.4 µM (inactive) | 21.5 µM (inactive) | 20.5 µM (inactive) | 21.3 µM (inactive) | 23 µM (inactive) | 21.8 µM (inactive) | 21.8 µM (inactive) | 24.8 µM (inactive) | 20.4 µM (inactive) | 20.1 µM (inactive) | 17.1 µM (inactive) | 20 µM (inactive) | 14.9 µM (inactive) | 14.3 µM (inactive) | 22.6 µM (inactive) | 13.4 µM (inactive) | 15.7 µM (inactive) | 16.1 µM (inactive)
CNC(=O)/C=C/C1=CN2C(=O)c3ccc(C)c(O)c3NC(OC)C2C1 (centres undefined) | 0.0125 µM (active) | < 0.01 µM (active) | 0.0136 µM (active) | < 0.0139 µM (active) | < 0.0164 µM (active) | < 0.0127 µM (active) | < 0.0152 µM (active) | < 0.0134 µM (active) | 0.0168 µM (active) | < 0.0163 µM (active) | 0.0298 µM (active) | < 0.01 µM (active) | 0.0183 µM (active) | < 0.0141 µM (active) | 0.0163 µM (active) | < 0.0166 µM (active) | 0.0244 µM (active) | 0.0533 µM (active) | < 0.0124 µM (active)
COC(=O)C1=NN2c3ccccc3CN([C@@H](C)c3ccccc3)C(=O)[C@H]2[C@@H]1C | 35.9 µM (inactive) | 24.7 µM (inactive) | 18.1 µM (inactive) | 31 µM (inactive) | 43.1 µM (inactive) | 34.5 µM (inactive) | 74.6 µM (inactive) | 27 µM (inactive) | 35 µM (inactive) | 36.3 µM (inactive) | 0.769 µM (active) | 57.7 µM (inactive) | 17.3 µM (inactive) | 34.7 µM (inactive) | 27.7 µM (inactive) | 33.7 µM (inactive) | 37.6 µM (inactive) | > 100 µM (inactive) | 35.2 µM (inactive)
Cc1c2c(OCC(O)CN3CCN(c4ccccc4)CC3)nn(C)c(=O)c2c(C)n1-c1ccccc1 (centres undefined) | 17.9 µM (inactive) | 21.9 µM (inactive) | 20.3 µM (inactive) | 29.3 µM (inactive) | 29.9 µM (inactive) | 19.1 µM (inactive) | 34.3 µM (inactive) | 20.5 µM (inactive) | 21.5 µM (inactive) | 18.4 µM (inactive) | 20.1 µM (inactive) | 18.8 µM (inactive) | 30.4 µM (inactive) | 33 µM (inactive) | 34.8 µM (inactive) | 31.6 µM (inactive) | 23.4 µM (inactive) | 20.3 µM (inactive) | 16.3 µM (inactive)
CC(C)/C=N\n1c(N)c(C#N)c(C#N)c1C(C)C | 18.2 µM (inactive) | 24.2 µM (inactive) | 18.7 µM (inactive) | 27 µM (inactive) | 38.1 µM (inactive) | 18.6 µM (inactive) | 34.9 µM (inactive) | 11.7 µM (inactive) | 16.8 µM (inactive) | 38.5 µM (inactive) | 26.1 µM (inactive) | 40.2 µM (inactive) | 13.5 µM (inactive) | 20.3 µM (inactive) | 20.4 µM (inactive) | 20.5 µM (inactive) | 21.7 µM (inactive) | 17.5 µM (inactive) | 22.2 µM (inactive)
CC(C)C1OC(=O)C=C1Sc1ccccc1 (centres undefined) | > 100 µM (inactive) | > 100 µM (inactive) | > 100 µM (inactive) | > 100 µM (inactive) | > 100 µM (inactive) | > 100 µM (inactive) | > 100 µM (inactive) | > 100 µM (inactive) | > 100 µM (inactive) | > 100 µM (inactive) | > 100 µM (inactive) | > 100 µM (inactive) | > 100 µM (inactive) | > 100 µM (inactive) | > 100 µM (inactive) | > 100 µM (inactive) | > 100 µM (inactive) | > 100 µM (inactive) | > 100 µM (inactive)
